What was measured:
[1] = test system: CCC-HHM-2 (human embryonic myocardial tissue cell); test: Cytotoxicity test, CCK-8; format: cell-based
Experimental: (§1) Optical density was calculated by the microplate reader (BioTek flx800, Berten, USA).

[2] = test system: HUVEC (human umbilical vein endothelial cell); test: Cytotoxicity test, CCK-8; format: cell-based
Experimental: as §1

C57BL/6 mice = format: in vivo
Experimental: All animals were closely observed every day for three weeks. The body weight and toxic effects were monitored and the survival rate was calculated. At the end of experiment, the survival mice were euthanized; vital organs, including heart, liver, lung, kidney and spleen, were then excised, weighed and preserved for histopathological observation.

S. typhimurium TA100 = test: Bacterial reverse mutation assay (Ames assay); format: cell-based, Salmonell typhimurium; settings: n = 3
Experimental: (§2) A sample of 2-aminofluorene (10 μg/plate) was used for TA97, TA98, TA100 +S9 test strains, while 1,8-dihydroxyanthraquinone (60 μg/plate) was used for the TA102 +S9 test strain. The histidine was added with the same amount. The plates were incubated for 48 h at 37 °C; the number of colonies was then counted per plate.

S. typhimurium TA98 = test: Bacterial reverse mutation assay (Ames assay); format: cell-based, Salmonell typhimurium; settings: n = 3
Experimental: as §2

S. typhimurium TA97 = test: Bacterial reverse mutation assay (Ames assay); format: cell-based, Salmonell typhimurium; settings: n = 3
Experimental: as §2

S. typhimurium TA102 = test: Bacterial reverse mutation assay (Ames assay); format: cell-based, Salmonell typhimurium; settings: n = 3
Experimental: as §2

[3] = test system: S. typhimurium strains TA97, TA98, TA100 and TA102; test: Bacterial reverse mutation assay (Ames assay), all strains; format: cell-based, Salmonell typhimurium
Experimental: as §2

[4] = test system: P. aeruginosa (ATCC27853); test: Anti-bacterial activity, inhibition zone diameter on agar; format: cell-based, Pseudomonas aeruginosa; settings: LP4C 5, 10, 50, 100, 200 μg/mL
Experimental: P. aeruginosa (ATCC27853) was cultured in 3 mL LB culture medium, shaken at 220 rpm for 12 h at 37 °C and diluted to 1 × 10^6 CFU/mL. The culture disk was coated with 1% agar, and 100 μL bacterial suspension was added to the agar in the disk evenly. […] LP4C or reference antibiotics were then added in each hole. The disk was cultured for 12–16 h at 37 °C; the result was then observed and the inhibition zone diameter was measured.

[5] = Pharmacokinetics measurement; format: in vivo; settings: SD rats; for plasma half-life: single dose
[6] = test system: pyr genes (pyrA, pyrB, pyrC, pyrD, pyrE and pyrF); test: RT-PCR (qPCR) of pyr genes; format: cell-based, Pseudomonas aeruginosa; settings: LP4C 10 μg/mL vs control
Experimental: The total RNA was isolated from P. aeruginosa cultures, and qPCR amplification was performed according to the instrument of the quantitative PCR system (Stratagene Mx3005P, Agilent, USA); the thermal cycler was then initiated by denaturation procedure for 2 min at 93 °C followed by 40 cycles of 1 min at 93 °C and 2 min at 55 °C. The gene-specific PCR primers were listed in Supplementary Table S3. The relative expression of genes was analyzed by the 2^−ΔΔCt method with normalization to gyrB level.

[7] = test system: P. aeruginosa (ATCC27853); test: Transcriptome assay (RNA-seq); format: cell-based, Pseudomonas aeruginosa; settings: LP4C 10 μg/mL vs Vehicle Treatment Group
Experimental: The RNA sequencing was performed using Illumina HiSeq4000 according to the operation instructions (Illumina, CA, USA). Differential gene expression analysis of LP4C treatment and control groups was conducted; KEGG signaling pathway analysis was performed to map the connection of multiple genes.

[8] = 200 μg/mL vs anti-biofilm concentration of LP4C
[9] = LP4C under 200 μg/mL, 24 h, vs vehicle

For `N#CC1=C(N)Oc2c(c(=O)oc3ccccc23)C1c1cc(C(F)(F)F)cc(C(F)(F)F)c1` (stereo not drawn) [LP4C], the “non-toxic concentration relative to anti-biofilm concentration” value [1, 8] was “at least 40 times”, the “cell viability (CCK-8)” value [1, 9] was “the cell viability was not affected” and the “non-toxic concentration relative to anti-biofilm concentration” value [2, 8] was “at least 40 times”. The “cell viability (CCK-8)” value [2, 9] was “the cell viability was not affected”, the “survival rate vs Control” value (C57BL/6 mice; 20 mg/kg to 320 mg/kg intragastric, three weeks) was “not a significant difference in the survival rate” and the “death and toxicity signs” value (C57BL/6 mice; 20, 40 and 80 mg/kg intragastric, three-week period) was “no death and obvious toxicity sign was observed”. The “histopathological changes (H&E) of heart, liver, lung, kidney and spleen” value (C57BL/6 mice; intragastric, vs control groups) was “no obvious pathological change was observed, except the slight hemorrhagic phenomena that occurred in the liver section in the 320 mg/kg LP4C Treatment Group”, the “number of bacterial revertant colonies” value (S. typhimurium TA100; LP4C 50 μg/plate, TA100, +S9, mean ± SD) was 130 ± 7.68 and the “number of bacterial revertant colonies” value (S. typhimurium TA100; LP4C 50 μg/plate, TA100, −S9, mean ± SD) was 117 ± 5.96. The “number of bacterial revertant colonies” value (S. typhimurium TA100; LP4C 200 μg/plate, TA100, +S9, mean ± SD) was 133 ± 7.34, the “number of bacterial revertant colonies” value (S. typhimurium TA100; LP4C 200 μg/plate, TA100, −S9, mean ± SD) was 116 ± 6.42 and the “number of bacterial revertant colonies” value (S. typhimurium TA100; LP4C 1000 μg/plate, TA100, +S9, mean ± SD) was 131 ± 6.75. The “number of bacterial revertant colonies” value (S. typhimurium TA100; LP4C 1000 μg/plate, TA100, −S9, mean ± SD) was 120 ± 8.33, the “number of bacterial revertant colonies” value (S. typhimurium TA100; LP4C 2000 μg/plate, TA100, +S9, mean ± SD) was 132 ± 6.95 and the “number of bacterial revertant colonies” value (S. typhimurium TA100; LP4C 2000 μg/plate, TA100, −S9, mean ± SD) was 120 ± 5.71. The “number of bacterial revertant colonies” value (S. typhimurium TA100; LP4C 5000 μg/plate, TA100, +S9, mean ± SD) was 130 ± 5.69, the “number of bacterial revertant colonies” value (S. typhimurium TA100; LP4C 5000 μg/plate, TA100, −S9, mean ± SD) was 122 ± 7.67 and the “number of bacterial revertant colonies” value (S. typhimurium TA98; LP4C 50 μg/plate, TA98, +S9, mean ± SD) was 32 ± 3.6. For the same compound, the “number of bacterial revertant colonies” value (S. typhimurium TA98; LP4C 50 μg/plate, TA98, −S9, mean ± SD) was 26 ± 2.2, the “number of bacterial revertant colonies” value (S. typhimurium TA98; LP4C 200 μg/plate, TA98, +S9, mean ± SD) was 33 ± 4.1 and the “number of bacterial revertant colonies” value (S. typhimurium TA98; LP4C 200 μg/plate, TA98, −S9, mean ± SD) was 26 ± 4.8. The “number of bacterial revertant colonies” value (S. typhimurium TA98; LP4C 1000 μg/plate, TA98, +S9, mean ± SD) was 32 ± 4.7, the “number of bacterial revertant colonies” value (S. typhimurium TA98; LP4C 1000 μg/plate, TA98, −S9, mean ± SD) was 25 ± 5.4 and the “number of bacterial revertant colonies” value (S. typhimurium TA98; LP4C 2000 μg/plate, TA98, +S9, mean ± SD) was 32 ± 5.8. The “number of bacterial revertant colonies” value (S. typhimurium TA98; LP4C 2000 μg/plate, TA98, −S9, mean ± SD) was 26 ± 6.7, the “number of bacterial revertant colonies” value (S. typhimurium TA98; LP4C 5000 μg/plate, TA98, +S9, mean ± SD) was 31 ± 5.2 and the “number of bacterial revertant colonies” value (S. typhimurium TA98; LP4C 5000 μg/plate, TA98, −S9, mean ± SD) was 24 ± 3.5. For the same compound, the “number of bacterial revertant colonies” value (S. typhimurium TA97; LP4C 50 μg/plate, TA97, +S9, mean ± SD) was 142 ± 7.13, the “number of bacterial revertant colonies” value (S. typhimurium TA97; LP4C 50 μg/plate, TA97, −S9, mean ± SD) was 123 ± 5.92 and the “number of bacterial revertant colonies” value (S. typhimurium TA97; LP4C 200 μg/plate, TA97, +S9, mean ± SD) was 140 ± 8.55. The “number of bacterial revertant colonies” value (S. typhimurium TA97; LP4C 200 μg/plate, TA97, −S9, mean ± SD) was 122 ± 7.42, the “number of bacterial revertant colonies” value (S. typhimurium TA97; LP4C 1000 μg/plate, TA97, +S9, mean ± SD) was 142 ± 5.96 and the “number of bacterial revertant colonies” value (S. typhimurium TA97; LP4C 1000 μg/plate, TA97, −S9, mean ± SD) was 119 ± 8.52. The “number of bacterial revertant colonies” value (S. typhimurium TA97; LP4C 2000 μg/plate, TA97, +S9, mean ± SD) was 140 ± 6.47, the “number of bacterial revertant colonies” value (S. typhimurium TA97; LP4C 2000 μg/plate, TA97, −S9, mean ± SD) was 120 ± 8.53 and the “number of bacterial revertant colonies” value (S. typhimurium TA97; LP4C 5000 μg/plate, TA97, +S9, mean ± SD) was 141 ± 7.65. The “number of bacterial revertant colonies” value (S. typhimurium TA97; LP4C 5000 μg/plate, TA97, −S9, mean ± SD) was 112 ± 9.83, the “number of bacterial revertant colonies” value (S. typhimurium TA102; LP4C 50 μg/plate, TA102, +S9, mean ± SD) was 276 ± 11.2 and the “number of bacterial revertant colonies” value (S. typhimurium TA102; LP4C 50 μg/plate, TA102, −S9, mean ± SD) was 260 ± 10.3. For the same compound, the “number of bacterial revertant colonies” value (S. typhimurium TA102; LP4C 200 μg/plate, TA102, +S9, mean ± SD) was 281 ± 9.36, the “number of bacterial revertant colonies” value (S. typhimurium TA102; LP4C 200 μg/plate, TA102, −S9, mean ± SD) was 271 ± 5.68 and the “number of bacterial revertant colonies” value (S. typhimurium TA102; LP4C 1000 μg/plate, TA102, +S9, mean ± SD) was 279 ± 10.6. For the same compound, the “number of bacterial revertant colonies” value (S. typhimurium TA102; LP4C 1000 μg/plate, TA102, −S9, mean ± SD) was 267 ± 8.35, the “number of bacterial revertant colonies” value (S. typhimurium TA102; LP4C 2000 μg/plate, TA102, +S9, mean ± SD) was 280 ± 11.3 and the “number of bacterial revertant colonies” value (S. typhimurium TA102; LP4C 2000 μg/plate, TA102, −S9, mean ± SD) was 262 ± 8.44. For the same compound, the “number of bacterial revertant colonies” value (S. typhimurium TA102; LP4C 5000 μg/plate, TA102, +S9, mean ± SD) was 273 ± 12.6, the “number of bacterial revertant colonies” value (S. typhimurium TA102; LP4C 5000 μg/plate, TA102, −S9, mean ± SD) was 256 ± 9.21 and the “number of bacterial revertant colonies vs DMSO negative control” value ([3]; LP4C 50 μg/plate to 5000 μg/plate) was “did not increase”. For the same compound, the mutagenic potential ([3]; LP4C 50 to 5000 μg/plate, ±S9) was “no obvious mutagenic potential”, the “growth inhibition / bactericidal activity (inhibition zone)” value [4] was “no bactericidal activity” and the “time during which blood concentration increased after administration” value ([5]; intragastric 10 mg/kg) was no more than 4 h. For the same compound, the bioavailability ([5]; intragastric 10 mg/kg vs intravenous 5 mg/kg) was 46.35%, the plasma half-life ([5]; intragastric 10 mg/kg) was 11 ± 1.26 h and the “time during which serum concentration declined rapidly” value ([5]; intravenous 5 mg/kg) was 10 to 60 min. For the same compound, the plasma half-life ([5]; intravenous 5 mg/kg) was 14 ± 3.05 h, the “expression of pyr genes” value [6] was “could inhibit the expression of pyr genes significantly” and the “most enriched pathway of DEGs (transcriptome)” value [7] was “the DEGs number of pyrimidine metabolism was the most enriched”.
